According to patent US20190298740A1, “METHODS AND COMPOSITIONS FOR TREATING HALLUCINATIONS AND CONDITIONS RELATED TO THE SAME” (Enterin, Inc., priority 2018, published 2019):
Where two headings read alike, the source gives them in different places.

Experiments:
[1] = Safety and adverse event profile, Phase 2 trial; format: in vivo, human;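 on Diarrhea, common adverse events by dose: number of subjects experiencing the event at each dose level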;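 on Nausea, common adverse events by dose: number of subjects experiencing the event at each dose level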;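 on Vomiting, common adverse events by dose: number of subjects experiencing the event at each dose level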
Source text: Tolerability limits included diarrhea or vomiting.

[2] = Pharmacokinetics of orally administered squalamine (ENT-01), Phase 2 trial; format: in vivo; settings: human; for AUC(0-t) / half-life / Cmax / Tmax: po; for Cmax: mean, approximate; for Tmax: read-out: Tmax (median value)
Procedure: PK data were collected on the 10 patients enrolled in Stage 1 and 10 patients enrolled in Stage 2 to determine the extent of systemic absorption. In Stage 1, PK data were obtained at each visit, pre-medication, at 1, 2, 4, 8 and 24 hours (Table 11). In Stage 2, PK was measured on days 1 and 6 of the randomization period pre-medication, at 1, 2, 4 and 8 hours (Table 12).
The mean Cmax, Tmax and T1/2 and AUC of the squalamine ion following squalamine (ENT-01) oral dosing for Stage 1 patients. The PK analyses are only approximate, as the lower limit of the validated concentration range was 10 ng/ml; most of the measured concentrations fell below that value. The mean Cmax, Tmax and T1/2 and AUC of the squalamine ion following squalamine (ENT-01) oral dosing for Stage 2 patients. The PK analyses are only approximate, as the lower limit of the validated concentration range was 0.5 ng/ml.

[3] = Preclinical oral dosing studies in dogs; settings: dog, in vivo
αS = αS (Homo sapiens, UniProt P37840); settings: in vitro; cited from earlier work
C. elegans αS model = settings: in vivo, C. elegans model of PD; cited from earlier work
mouse models of PD = settings: cited from earlier work
[4] = in vivo, 50 mg, Stage 1, 50 mg oral, 10 patients
[5] = in vivo, 100 mg, Stage 2, 100 mg oral daily, 4 patients (2 visits each)
[6] = in vivo, 175 mg, Stage 1, 175 mg oral, 7 patients
[7] = in vivo, 175 mg, Stage 2, 175 mg oral daily, 5 patients (2 visits each)
[8] = plasma, 25 mg, Stage 1, 25 mg oral, 9 patients
[9] = plasma, 75 mg, Stage 1, 75 mg oral, 9 patients
[10] = plasma, 75 mg, Stage 2, 75 mg oral daily, 1 patient (2 visits)
[11] = plasma, 100 mg, Stage 1, 100 mg oral, 9 patients
[12] = plasma, 125 mg, Stage 1, 125 mg oral, 9 patients
[13] = plasma, 200 mg, Stage 1, 200 mg oral, 6 patients

For `CC(C)[C@@H](CC[C@@H](C)[C@H]1CC[C@H]2[C@@H]3[C@H](O)C[C@H]4C[C@@H](NCCCNCCCCN)CC[C@]4(C)[C@H]3CC[C@]12C)OS(=O)(=O)O` (single isomer, unassigned) [squalamine (ENT-01)], the “Diarrhea, common adverse events by dose” value ([1]; Stage 1, 25 mg) was 1, the “Nausea, common adverse events by dose” value ([1]; Stage 1, 25 mg) was 0 and the “Vomiting, common adverse events by dose” value ([1]; Stage 1, 25 mg) was 0. For the same compound, the “Diarrhea, common adverse events by dose” value ([1]; Stage 1, 50 mg) was 1, the “Nausea, common adverse events by dose” value ([1]; Stage 1, 50 mg) was 0 and the “Vomiting, common adverse events by dose” value ([1]; Stage 1, 50 mg) was 0. For the same compound, the “Diarrhea, common adverse events by dose” value ([1]; Stage 1, 75 mg) was 1, the “Nausea, common adverse events by dose” value ([1]; Stage 1, 75 mg) was 0 and the “Vomiting, common adverse events by dose” value ([1]; Stage 1, 75 mg) was 0. The “Diarrhea, common adverse events by dose” value ([1]; Stage 1, 100 mg) was 0, the “Nausea, common adverse events by dose” value ([1]; Stage 1, 100 mg) was 1 and the “Vomiting, common adverse events by dose” value ([1]; Stage 1, 100 mg) was 1. For the same compound, the “Diarrhea, common adverse events by dose” value ([1]; Stage 1, 125 mg) was 1, the “Nausea, common adverse events by dose” value ([1]; Stage 1, 125 mg) was 2 and the “Vomiting, common adverse events by dose” value ([1]; Stage 1, 125 mg) was 1. For the same compound, the “Diarrhea, common adverse events by dose” value ([1]; Stage 1, 150 mg) was 1, the “Nausea, common adverse events by dose” value ([1]; Stage 1, 150 mg) was 0 and the “Vomiting, common adverse events by dose” value ([1]; Stage 1, 150 mg) was 0. For the same compound, the “Diarrhea, common adverse events by dose” value ([1]; Stage 1, 175 mg) was 1, the “Nausea, common adverse events by dose” value ([1]; Stage 1, 175 mg) was 1 and the “Vomiting, common adverse events by dose” value ([1]; Stage 1, 175 mg) was 0. The “Diarrhea, common adverse events by dose” value ([1]; Stage 1, 200 mg) was 0, the “Nausea, common adverse events by dose” value ([1]; Stage 1, 200 mg) was 2 and the “Vomiting, common adverse events by dose” value ([1]; Stage 1, 200 mg) was 0. For the same compound, the “Diarrhea, common adverse events by dose” value ([1]; Stage 2, 75 mg) was 7, the “Dizziness (lightheadedness included), common adverse events by dose” value (“Dizziness (lightheadedness included)” for short) ([1]; Stage 2, 75 mg) was 8 and the “Nausea, common adverse events by dose” value ([1]; Stage 2, 75 mg) was 3. The “Diarrhea, common adverse events by dose” value ([1]; Stage 2, 100 mg) was 10, the “Dizziness (lightheadedness included)” value ([1]; Stage 2, 100 mg) was 7 and the “Nausea, common adverse events by dose” value ([1]; Stage 2, 100 mg) was 12. The “Diarrhea, common adverse events by dose” value ([1]; Stage 2, 125 mg) was 3, the “Dizziness (lightheadedness included)” value ([1]; Stage 2, 125 mg) was 8 and the “Nausea, common adverse events by dose” value ([1]; Stage 2, 125 mg) was 4. For the same compound, the “Diarrhea, common adverse events by dose” value ([1]; Stage 2, 150 mg) was 2, the “Dizziness (lightheadedness included)” value ([1]; Stage 2, 150 mg) was 2 and the “Nausea, common adverse events by dose” value ([1]; Stage 2, 150 mg) was 11. For the same compound, the “Diarrhea, common adverse events by dose” value ([1]; Stage 2, 175 mg) was 1, the “Dizziness (lightheadedness included)” value ([1]; Stage 2, 175 mg) was 0 and the “Nausea, common adverse events by dose” value ([1]; Stage 2, 175 mg) was 12. The “Diarrhea, common adverse events by dose” value ([1]; Stage 2, 200 mg) was 3, the “Nausea, common adverse events by dose” value ([1]; Stage 2, 200 mg) was 6 and the “Diarrhea, common adverse events by dose” value ([1]; Stage 2, 225 mg) was 3. The “Nausea, common adverse events by dose” value ([1]; Stage 2, 225 mg) was 1, the “Diarrhea, common adverse events by dose” value ([1]; Stage 2, 250 mg) was 2 and the “Course of all other AEs” value ([1]; both stages) was “resolved spontaneously without discontinuation”. It also gave an AUC(0-t) ([2]; in vivo, 25 mg, Stage 1, 25 mg oral, 9 patients, read-out: AUC0-8hr) of 10.8 ng·h/mL, an AUC(0-t) ([2]; in vivo, 25 mg, Stage 1, 25 mg oral, 9 patients, read-out: AUC0-16hr) of 19.6 ng·h/mL and a half-life ([2]; in vivo, 25 mg, Stage 1, 25 mg oral, n = 3, read-out: T½ (converted)) of 2.6 h. For the same compound, the Cmax [2, 4] was 3.73 ng/mL, the AUC(0-t) ([2]; in vivo, 50 mg, Stage 1, 50 mg oral, 10 patients, read-out: AUC0-8hr) was 18.5 ng·h/mL and the AUC(0-t) ([2]; in vivo, 50 mg, Stage 1, 50 mg oral, 10 patients, read-out: AUC0-16hr) was 33.1 ng·h/mL. For the same compound, the Tmax [2, 4] was 2 h, the half-life ([2]; in vivo, 50 mg, Stage 1, 50 mg oral, n = 3, read-out: T½ (converted)) was 3.4 h and the Cmax [2, 5] was 17.7 ng/mL. It also gave an AUC(0-t) ([2]; in vivo, 100 mg, Stage 2, 100 mg oral daily, 4 patients (2 visits each), read-out: AUC0-8 hr) of 70.3 ng·h/mL, a Tmax [2, 5] of 1 h and a half-life ([2]; in vivo, 100 mg, Stage 2, 100 mg oral daily, n = 5, read-out: T1/2 (converted)) of 4.8 h. For the same compound, the AUC(0-t) ([2]; in vivo, 150 mg, Stage 1, 150 mg oral, 7 patients, read-out: AUC0-8hr) was 31.5 ng·h/mL, the AUC(0-t) ([2]; in vivo, 150 mg, Stage 1, 150 mg oral, 7 patients, read-out: AUC0-16hr) was 64 ng·h/mL and the Tmax ([2]; in vivo, 150 mg, Stage 1, 150 mg oral, 7 patients) was 2 h. It also gave a half-life ([2]; in vivo, 150 mg, Stage 1, 150 mg oral, n = 4, read-out: T½ (converted)) of 5.6 h, a Cmax [2, 6] of 10.3 ng/mL and an AUC(0-t) ([2]; in vivo, 175 mg, Stage 1, 175 mg oral, 7 patients, read-out: AUC0-8hr) of 49.7 ng·h/mL. It also gave a Tmax [2, 6] of 2 h, a half-life ([2]; in vivo, 175 mg, Stage 1, 175 mg oral, n = 6, read-out: T½ (converted)) of 9.1 h and a Cmax [2, 7] of 11.8 ng/mL. The AUC(0-t) ([2]; in vivo, 175 mg, Stage 2, 175 mg oral daily, 5 patients (2 visits each), read-out: AUC0-8 hr) was 66.8 ng·h/mL, the Tmax [2, 7] was 2 h and the half-life ([2]; in vivo, 175 mg, Stage 2, 175 mg oral daily, n = 6, read-out: T1/2 (converted)) was 10 h. For the same compound, the Cmax [2, 8] was 2.84 ng/mL, the Tmax [2, 8] was 1 h and the Cmax [2, 9] was 4.33 ng/mL. For the same compound, the AUC(0-t) ([2]; plasma, 75 mg, Stage 1, 75 mg oral, 9 patients, read-out: AUC0-8hr) was 18.4 ng·h/mL, the AUC(0-t) ([2]; plasma, 75 mg, Stage 1, 75 mg oral, 9 patients, read-out: AUC0-16hr) was 29.8 ng·h/mL and the Tmax [2, 9] was 2 h. It also gave a half-life ([2]; plasma, 75 mg, Stage 1, 75 mg oral, n = 2, read-out: T½ (converted)) of 2.8 h, a Cmax [2, 10] of 10 ng/mL and an AUC(0-t) ([2]; plasma, 75 mg, Stage 2, 75 mg oral daily, 1 patient (2 visits), read-out: AUC0-8 hr) of 59 ng·h/mL. For the same compound, the Tmax [2, 10] was 3 h, the half-life ([2]; plasma, 75 mg, Stage 2, 75 mg oral daily, n = 1, read-out: T1/2 (converted)) was 5.5 h and the Cmax [2, 11] was 6.18 ng/mL. It also gave an AUC(0-t) ([2]; plasma, 100 mg, Stage 1, 100 mg oral, 9 patients, read-out: AUC0-8hr) of 29.6 ng·h/mL, an AUC(0-t) ([2]; plasma, 100 mg, Stage 1, 100 mg oral, 9 patients, read-out: AUC0-16hr) of 51.5 ng·h/mL and a Tmax [2, 11] of 2 h. It also gave a half-life ([2]; plasma, 100 mg, Stage 1, 100 mg oral, n = 5, read-out: T½ (converted)) of 3.9 h, a Cmax [2, 12] of 9.63 ng/mL and an AUC(0-t) ([2]; plasma, 125 mg, Stage 1, 125 mg oral, 9 patients, read-out: AUC0-8hr) of 43.1 ng·h/mL. For the same compound, the AUC(0-t) ([2]; plasma, 125 mg, Stage 1, 125 mg oral, 9 patients, read-out: AUC0-16hr) was 77.7 ng·h/mL, the Tmax [2, 12] was 2 h and the half-life ([2]; plasma, 125 mg, Stage 1, 125 mg oral, n = 4, read-out: T½ (converted)) was 3.9 h. For the same compound, the Cmax ([2]; plasma, 150 mg, Stage 1, 150 mg oral, 7 patients) was 6.27 ng/mL, the AUC(0-t) ([2]; plasma, 175 mg, Stage 1, 175 mg oral, 7 patients, read-out: AUC0-16hr) was 91.2 ng·h/mL and the Cmax [2, 13] was 15.1 ng/mL. It also gave an AUC(0-t) ([2]; plasma, 200 mg, Stage 1, 200 mg oral, 6 patients, read-out: AUC0-8hr) of 78.3 ng·h/mL, an AUC(0-t) ([2]; plasma, 200 mg, Stage 1, 200 mg oral, 6 patients, read-out: AUC0-16hr) of 157 ng·h/mL and a Tmax [2, 13] of 2 h. For the same compound, the half-life ([2]; plasma, 200 mg, Stage 1, 200 mg oral, n = 5, read-out: T½ (converted)) was 9 h, the bioavailability ([2]; plasma, Stage 1, oral dosing up to 200 mg (114 mg/m^2), compared with prior phase 1 IV data, read-out: Approximate oral bioavailability) was roughly 0.1% and the bioavailability [3] was roughly 0.1%. The “Formation of aggregates of αS” value (αS) was “inhibits the formation of αS aggregates”, the “Formation of aggregates of αS” value (C. elegans αS model) was “inhibits the formation of αS aggregates” and the Gastrointestinal motility (mouse models of PD) was “restores gastrointestinal motility”.
